The target in assay [1] is 5-hydroxytryptamine receptor 2A (Homo sapiens, UniProt P28223). Format: functional, cell-based.
For another assay, the target named is Motilin receptor (Homo sapiens, UniProt O43193).
The next assay has as its target Mu-type opioid receptor (Homo sapiens, UniProt P35372). The assay can be described thus: biochemical. In kind it is functional.
Assay [2] has as its target T1, Prostaglandin G/H synthase 1 (Rattus norvegicus, UniProt Q63921).
T1 sequence (Q63921 whole entry): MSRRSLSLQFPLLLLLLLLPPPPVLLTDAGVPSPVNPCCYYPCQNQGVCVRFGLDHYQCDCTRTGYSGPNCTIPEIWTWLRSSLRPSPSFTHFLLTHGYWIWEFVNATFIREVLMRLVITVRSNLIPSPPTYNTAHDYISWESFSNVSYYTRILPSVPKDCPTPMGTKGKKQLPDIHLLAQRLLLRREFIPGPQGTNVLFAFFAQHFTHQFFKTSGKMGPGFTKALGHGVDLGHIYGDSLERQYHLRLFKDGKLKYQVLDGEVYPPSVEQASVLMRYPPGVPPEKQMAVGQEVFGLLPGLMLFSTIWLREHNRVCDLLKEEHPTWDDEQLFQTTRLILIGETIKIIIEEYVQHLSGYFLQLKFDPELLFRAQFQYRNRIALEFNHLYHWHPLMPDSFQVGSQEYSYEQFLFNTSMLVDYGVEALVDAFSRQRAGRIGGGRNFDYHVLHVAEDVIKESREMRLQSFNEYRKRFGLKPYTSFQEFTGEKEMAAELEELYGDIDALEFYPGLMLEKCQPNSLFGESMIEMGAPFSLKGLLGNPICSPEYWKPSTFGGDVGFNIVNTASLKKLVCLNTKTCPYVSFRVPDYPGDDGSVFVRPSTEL
Format: functional.

For a further assay, the target named is Cannabinoid receptor 1 (Homo sapiens, UniProt P21554).
Sequence of Cannabinoid receptor 1 (P21554 whole entry): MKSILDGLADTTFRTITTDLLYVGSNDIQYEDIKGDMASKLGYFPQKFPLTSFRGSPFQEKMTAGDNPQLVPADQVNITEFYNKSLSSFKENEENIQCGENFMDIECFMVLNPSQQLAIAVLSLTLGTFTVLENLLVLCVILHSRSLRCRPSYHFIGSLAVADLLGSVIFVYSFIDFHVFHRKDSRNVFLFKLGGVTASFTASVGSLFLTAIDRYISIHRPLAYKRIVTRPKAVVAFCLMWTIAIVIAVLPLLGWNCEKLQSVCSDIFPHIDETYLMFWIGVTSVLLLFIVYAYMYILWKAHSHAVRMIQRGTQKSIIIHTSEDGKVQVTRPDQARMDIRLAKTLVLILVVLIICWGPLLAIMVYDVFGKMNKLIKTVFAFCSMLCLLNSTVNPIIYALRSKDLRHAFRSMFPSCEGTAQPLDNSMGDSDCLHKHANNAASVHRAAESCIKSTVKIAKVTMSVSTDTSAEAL
The target of assay [3] is Beta-2 adrenergic receptor (Homo sapiens, UniProt P07550). Format: functional, cell-based.
Sequence of Beta-2 adrenergic receptor (P07550 whole entry): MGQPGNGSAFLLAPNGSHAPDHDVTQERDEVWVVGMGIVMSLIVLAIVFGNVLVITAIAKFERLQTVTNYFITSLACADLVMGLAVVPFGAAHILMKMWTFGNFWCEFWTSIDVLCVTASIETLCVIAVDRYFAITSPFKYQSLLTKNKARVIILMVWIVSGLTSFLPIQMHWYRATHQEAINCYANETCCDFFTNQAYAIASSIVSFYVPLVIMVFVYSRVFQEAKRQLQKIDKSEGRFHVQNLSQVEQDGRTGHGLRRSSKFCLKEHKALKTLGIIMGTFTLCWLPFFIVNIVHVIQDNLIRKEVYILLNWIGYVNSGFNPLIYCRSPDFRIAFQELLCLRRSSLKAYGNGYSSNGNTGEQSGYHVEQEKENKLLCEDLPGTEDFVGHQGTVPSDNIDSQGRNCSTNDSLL

Where only a bound is given, the exact number is not on record here.

As a reminder, the AC50 is the concentration giving half of the maximal activity seen. Low readings indicate greater potency, high ones weaker potency.
Note: assay procedure not described here.

Sequence of 5-hydroxytryptamine receptor 2A (P28223 whole entry): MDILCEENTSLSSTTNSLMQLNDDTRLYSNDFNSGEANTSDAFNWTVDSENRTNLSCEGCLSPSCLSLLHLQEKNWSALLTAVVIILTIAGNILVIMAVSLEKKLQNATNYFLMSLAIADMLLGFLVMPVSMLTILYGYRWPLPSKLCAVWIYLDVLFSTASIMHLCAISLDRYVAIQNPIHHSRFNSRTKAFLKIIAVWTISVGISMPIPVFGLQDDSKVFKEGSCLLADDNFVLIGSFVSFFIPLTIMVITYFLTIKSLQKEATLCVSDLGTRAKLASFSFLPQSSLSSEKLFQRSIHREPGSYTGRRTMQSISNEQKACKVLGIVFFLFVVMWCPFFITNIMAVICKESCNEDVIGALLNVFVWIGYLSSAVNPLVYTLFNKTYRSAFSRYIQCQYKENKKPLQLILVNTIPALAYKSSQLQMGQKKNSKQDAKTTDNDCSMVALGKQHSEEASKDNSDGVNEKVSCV
Sequence of Mu-type opioid receptor (P35372 whole entry): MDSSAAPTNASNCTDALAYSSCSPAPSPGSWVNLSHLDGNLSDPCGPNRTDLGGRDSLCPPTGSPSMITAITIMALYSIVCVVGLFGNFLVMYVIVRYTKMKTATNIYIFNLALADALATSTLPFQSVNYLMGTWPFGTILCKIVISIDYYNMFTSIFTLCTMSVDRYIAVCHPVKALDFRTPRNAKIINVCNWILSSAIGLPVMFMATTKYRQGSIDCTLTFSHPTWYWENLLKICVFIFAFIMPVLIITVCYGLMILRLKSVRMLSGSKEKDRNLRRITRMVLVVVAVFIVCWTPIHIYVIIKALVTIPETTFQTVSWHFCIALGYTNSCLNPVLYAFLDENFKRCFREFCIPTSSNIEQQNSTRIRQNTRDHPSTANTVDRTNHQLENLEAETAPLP
Sequence of Motilin receptor (O43193 whole entry): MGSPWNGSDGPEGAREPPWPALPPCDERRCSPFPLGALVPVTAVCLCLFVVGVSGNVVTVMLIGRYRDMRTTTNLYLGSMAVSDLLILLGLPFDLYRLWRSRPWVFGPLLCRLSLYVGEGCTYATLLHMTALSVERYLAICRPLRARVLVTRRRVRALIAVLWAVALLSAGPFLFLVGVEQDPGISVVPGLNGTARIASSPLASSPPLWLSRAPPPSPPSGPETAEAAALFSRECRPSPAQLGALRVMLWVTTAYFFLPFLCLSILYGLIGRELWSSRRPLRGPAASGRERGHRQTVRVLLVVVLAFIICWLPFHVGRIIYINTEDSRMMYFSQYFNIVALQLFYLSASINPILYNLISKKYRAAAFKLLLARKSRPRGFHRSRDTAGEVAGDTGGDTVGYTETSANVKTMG

Regarding `COc1cc(N)cn[n+]1-c1ccccc1` [AMEZINIUM METILSULFATE], the concentration at half-maximal activity (AC50) (in assay [1]; at Motilin receptor; at Mu-type opioid receptor; in assay [2]) was more than 30 µM in each case.
As for `CNCCc1ccccn1` [BETAHISTINE], the AC50 (on Motilin receptor; at Mu-type opioid receptor; in assay [2]) was more than 30 µM throughout.
Turning to `O=C(O)CCCC[C@@H]1SC[C@@H]2NC(=O)N[C@@H]21` [BIOTIN], the AC50 (at Cannabinoid receptor 1; on Motilin receptor; in assay [2]) was more than 10 µM in each case.
Take `CCCCOC(=O)c1ccc(N)cc1` [BUTAMBEN]: the half-maximal activity concentration (AC50) at Motilin receptor was more than 30 µM; at Mu-type opioid receptor, more than 30 µM; in assay [2], 0.6 µM.
With `CN(Cc1ccc(C(C)(C)C)cc1)Cc1cccc2ccccc12` [BUTENAFINE], the half-maximal activity concentration (AC50) (on Cannabinoid receptor 1; on Motilin receptor; in assay [2]) was more than 10 µM each time.
Consider `CO/N=C(\C(=O)N[C@@H]1C(=O)N2C(C(=O)O)=C(CSc3nc(C)c(CC(=O)O)s3)CS[C@H]12)c1csc(N)n1` [CEFODIZIME], for which the half-maximal activity concentration (AC50) in assay [1] is more than 30 µM; at Motilin receptor, more than 30 µM; at Mu-type opioid receptor, more than 30 µM; in assay [2], 27 µM.
With `CO/N=C(\C(=O)N[C@@H]1C(=O)N2C(C(=O)[O-])=C(C[n+]3ccc(N)n3CCO)CS[C@H]12)c1csc(N)n1` [CEFOSELIS], the AC50 (in assay [1]; on Motilin receptor; at Mu-type opioid receptor; in assay [2]) was more than 30 µM throughout.
As to `CC(=O)OCC1=C(C(=O)O)N2C(=O)[C@@H](NC(=O)Cc3cccs3)[C@H]2SC1` [CEPHALOTHIN], the AC50 (in assay [3]; in assay [1]; on Motilin receptor; at Mu-type opioid receptor; in assay [2]) was more than 30 µM in each case.
On to `CC(=O)OCC1=C(C(=O)O)N2C(=O)[C@@H](NC(=O)CSc3ccncc3)[C@H]2SC1` [CEPHAPIRIN], for which the AC50 at Cannabinoid receptor 1 was more than 10 µM; in assay [1] it was more than 10 µM; at Motilin receptor, more than 10 µM; at Mu-type opioid receptor, more than 30 µM; in assay [2], more than 10 µM.
For `CC1=C(C(=O)O)N2C(=O)[C@@H](NC(=O)[C@H](N)C3=CCC=CC3)[C@H]2SC1` [CEPHRADINE], the concentration at half-maximal activity (AC50) (in assay [3]; in assay [1]; at Motilin receptor; on Mu-type opioid receptor; in assay [2]) was more than 30 µM each time.
As for `Nc1nc(Cl)nc2c1ncn2[C@@H]1O[C@H](CO)[C@@H](O)[C@@H]1F` [CLOFARABINE], the AC50 (on Cannabinoid receptor 1; in assay [1]; at Motilin receptor; at Mu-type opioid receptor; in assay [2]) was more than 30 µM each time.
Turning to `CC1CC(OC(=O)C(O)c2ccccc2)CC(C)(C)C1` (centres undefined) [CYCLANDELATE], the AC50 (on Cannabinoid receptor 1; at Motilin receptor; in assay [2]) was more than 10 µM throughout.
For `CN(C)CCOC(=O)C(c1ccccc1)C1(O)CCCC1` (centres undefined) [CYCLOPENTOLATE], the concentration at half-maximal activity (AC50) was more than 10 µM on Cannabinoid receptor 1; more than 10 µM in assay [1]; more than 10 µM at Motilin receptor; more than 30 µM on Mu-type opioid receptor; more than 10 µM in assay [2].
With `CCCCCCOC(=O)NC(=N)c1ccc(NCc2nc3cc(C(=O)N(CCC(=O)OCC)c4ccccn4)ccc3n2C)cc1` [DABIGATRAN ETEXILATE], the half-maximal activity concentration (AC50) (in assay [3]; in assay [1]; at Motilin receptor; in assay [2]) was more than 30 µM throughout.
Regarding `COC(=O)[C@H]1[C@H]2C[C@@H]3c4[nH]c5ccccc5c4CCN3C[C@H]2C[C@@H](OC(=O)c2cc(OC)c(OC)c(OC)c2)[C@@H]1OC` [DESERPIDINE], the AC50 on Cannabinoid receptor 1 was more than 10 µM; in assay [1] it was more than 10 µM; at Motilin receptor, more than 30 µM; in assay [2] it was 34.3 µM.
With `CCc1ccc(C(=O)C(C)CN2CCCCC2)cc1` (centres undefined) [EPERISONE], the half-maximal activity concentration (AC50) (at Cannabinoid receptor 1; on Motilin receptor; on Mu-type opioid receptor; in assay [2]) was more than 30 µM each time.
Consider `CCC1(C)CC(=O)NC1=O` (centres undefined) [ETHOSUXIMIDE], for which the concentration at half-maximal activity (AC50) at Cannabinoid receptor 1 was more than 10 µM; at Motilin receptor, more than 10 µM; on Mu-type opioid receptor, more than 30 µM; in assay [2], more than 10 µM.
For the compound `CCN1C(=O)NC(c2ccccc2)C1=O` (centres undefined) [ETHOTOIN], the concentration at half-maximal activity (AC50) was more than 30 µM in assay [3]; more than 30 µM in assay [1]; more than 30 µM on Motilin receptor; more than 30 µM on Mu-type opioid receptor; 22 µM in assay [2].
In the case of `CC(=O)[C@@]1(O)CC[C@H]2[C@@H]3C[C@H](C)C4=CC(=O)C=C[C@]4(C)[C@@]3(F)[C@@H](O)C[C@@]21C` [FLUOROMETHOLONE], the concentration at half-maximal activity (AC50) (on Cannabinoid receptor 1; at Motilin receptor; in assay [2]) was more than 10 µM in each case.
Regarding `CCC(NC(C)C)C(O)c1ccc(O)c(O)c1` (centres undefined) [ISOETHARINE], the AC50 on Cannabinoid receptor 1 was more than 30 µM; in assay [1], more than 30 µM; at Motilin receptor, more than 30 µM; at Mu-type opioid receptor, more than 30 µM; in assay [2] it was 0.66 µM.
Turning to `CC(=O)N1CCN(c2ccc(OCC3COC(Cn4ccnc4)(c4ccc(Cl)cc4Cl)O3)cc2)CC1` (centres undefined) [KETOCONAZOLE], the AC50 (at Cannabinoid receptor 1; on Motilin receptor; in assay [2]) was more than 10 µM in each case.
In the case of `O=C(C[S+]([O-])Cc1ccco1)NC/C=C\COc1cc(CN2CCCCC2)ccn1` (centres undefined) [LAFUTIDINE], the concentration at half-maximal activity (AC50) at Cannabinoid receptor 1 is more than 10 µM; in assay [1] it was more than 30 µM; on Motilin receptor it was more than 10 µM; in assay [2], more than 10 µM.
For `CCC1(CC)C(=O)NC(=O)N(C)C1=O` [METHARBITAL], the AC50 (at Cannabinoid receptor 1; in assay [1]; at Motilin receptor; in assay [2]) was more than 10 µM each time.
Turning to `COc1nc(C)nc(Cl)c1N=C1NCCN1` [MOXONIDINE], the AC50 (in assay [3]; on Motilin receptor; at Mu-type opioid receptor; in assay [2]) was more than 30 µM throughout.
Regarding `CC(C)(C)NCC(O)COc1cccc2c1CC(O)C(O)C2` (centres undefined) [NADOLOL], the half-maximal activity concentration (AC50) (at Cannabinoid receptor 1; on Motilin receptor; in assay [2]) was more than 10 µM throughout.
`CCN(CC)Cc1nccn1-c1ccc([N+](=O)[O-])cc1C(=O)c1ccccc1Cl` [NIZOFENONE]: the AC50 (in assay [1]; on Motilin receptor; at Mu-type opioid receptor; in assay [2]) was more than 30 µM in each case.
Take `Nc1ccc(S(=O)(=O)Nc2ncccn2)cc1` [SULFADIAZINE]: the AC50 (on Cannabinoid receptor 1; at Motilin receptor; in assay [2]) was more than 10 µM each time.
Regarding `Cc1cccc(Nc2ccncc2S(=O)(=O)NC(=O)NC(C)C)c1` [TORSEMIDE], the AC50 at Cannabinoid receptor 1 was more than 10 µM; at Motilin receptor it was more than 30 µM; on Mu-type opioid receptor it was more than 30 µM; in assay [2] it was more than 10 µM.
Take `CC1=C(/C=C/C(C)=C/C=C/C(C)=C/C(=O)Oc2c(C)c(C)c3c(c2C)CCC(C)(CCCC(C)CCCC(C)CCCC(C)C)O3)C(C)(C)CCC1` (centres undefined) [TRETINOIN TOCOFERIL]: the AC50 (in assay [1]; at Motilin receptor; at Mu-type opioid receptor; in assay [2]) was more than 30 µM throughout.
With `CCN(C(C)=O)c1cccc(-c2ccnc3c(C#N)cnn23)c1` [ZALEPLON], the concentration at half-maximal activity (AC50) (on Motilin receptor; in assay [2]) was more than 30 µM throughout.
For the compound SITOSTEROLS, the AC50 (in assay [1]; at Motilin receptor; at Mu-type opioid receptor) was more than 30 µM throughout.
